This is an account of results in ChEMBL document CHEMBL5291721, “A preclinical secondary pharmacology resource illuminates target-adverse drug reaction associations of marketed drugs” (Nat Commun, 2023).

The term AC50 denotes the concentration giving half of the maximal activity seen. A lower AC50 goes with activity at low concentration.

Assay [1] addresses T1, 5-hydroxytryptamine receptor 3A (Homo sapiens, UniProt P46098).
T1 sequence (P46098 whole entry): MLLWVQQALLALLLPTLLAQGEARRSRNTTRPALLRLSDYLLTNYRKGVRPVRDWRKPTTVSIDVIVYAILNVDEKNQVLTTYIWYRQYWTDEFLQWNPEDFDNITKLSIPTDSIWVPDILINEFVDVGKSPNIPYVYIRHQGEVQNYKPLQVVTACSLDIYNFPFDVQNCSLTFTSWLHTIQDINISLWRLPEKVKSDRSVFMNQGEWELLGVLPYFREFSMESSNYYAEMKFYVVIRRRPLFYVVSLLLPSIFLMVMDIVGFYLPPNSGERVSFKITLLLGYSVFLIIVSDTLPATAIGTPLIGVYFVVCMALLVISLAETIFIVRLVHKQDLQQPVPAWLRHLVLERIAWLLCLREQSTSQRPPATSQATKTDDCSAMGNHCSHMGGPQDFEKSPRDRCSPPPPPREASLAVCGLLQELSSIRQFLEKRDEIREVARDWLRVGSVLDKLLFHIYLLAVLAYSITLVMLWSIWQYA
The format is functional.

The target of the next assay is Histamine H2 receptor (Homo sapiens, UniProt P25021). In kind it is functional, cell-based.
Another assay addresses T2, Estrogen receptor (Homo sapiens, UniProt P03372).
T2 sequence (P03372 whole entry): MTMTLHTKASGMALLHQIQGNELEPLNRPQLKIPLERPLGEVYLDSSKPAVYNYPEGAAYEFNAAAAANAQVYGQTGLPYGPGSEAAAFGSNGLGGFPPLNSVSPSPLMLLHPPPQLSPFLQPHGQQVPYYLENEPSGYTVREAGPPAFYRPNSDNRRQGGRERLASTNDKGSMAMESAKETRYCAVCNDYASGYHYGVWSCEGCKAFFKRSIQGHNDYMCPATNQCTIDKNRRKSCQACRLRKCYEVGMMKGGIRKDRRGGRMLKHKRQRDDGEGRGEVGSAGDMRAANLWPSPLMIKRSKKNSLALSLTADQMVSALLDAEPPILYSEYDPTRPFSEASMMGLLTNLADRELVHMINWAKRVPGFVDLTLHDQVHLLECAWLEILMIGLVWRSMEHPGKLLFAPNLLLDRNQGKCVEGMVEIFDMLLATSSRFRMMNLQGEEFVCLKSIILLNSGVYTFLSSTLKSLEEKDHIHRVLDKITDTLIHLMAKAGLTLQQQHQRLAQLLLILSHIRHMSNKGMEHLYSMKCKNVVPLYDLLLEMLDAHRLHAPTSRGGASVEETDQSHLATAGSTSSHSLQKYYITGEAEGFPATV

Assay [2] concerns the target T3, Cholecystokinin receptor type A (Homo sapiens, UniProt P32238).
T3 sequence (P32238 whole entry): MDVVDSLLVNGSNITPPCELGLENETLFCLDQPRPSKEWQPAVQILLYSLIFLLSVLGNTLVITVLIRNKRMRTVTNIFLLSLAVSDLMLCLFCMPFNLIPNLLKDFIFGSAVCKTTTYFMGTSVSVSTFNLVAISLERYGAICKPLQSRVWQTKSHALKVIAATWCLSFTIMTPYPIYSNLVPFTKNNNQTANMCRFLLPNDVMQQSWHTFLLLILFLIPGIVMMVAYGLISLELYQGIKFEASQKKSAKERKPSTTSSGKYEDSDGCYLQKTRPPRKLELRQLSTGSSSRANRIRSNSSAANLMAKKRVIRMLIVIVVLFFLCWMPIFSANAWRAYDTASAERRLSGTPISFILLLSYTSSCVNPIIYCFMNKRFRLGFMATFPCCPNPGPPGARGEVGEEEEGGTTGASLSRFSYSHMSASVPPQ

Assay [3] concerns the target Beta-1 adrenergic receptor (Homo sapiens, UniProt P08588). The format is functional.
The next assay addresses D(1A) dopamine receptor (Homo sapiens, UniProt P21728). The format is functional, cell-based.
Assay [4] deals with Gamma-aminobutyric acid receptor subunit alpha-1 (Rattus norvegicus, UniProt P62813).
Assay [5] deals with T4, 5-hydroxytryptamine receptor 2A (Homo sapiens, UniProt P28223). The format is functional, cell-based.
A further assay has as its target Mu-type opioid receptor (Homo sapiens, UniProt P35372). As to the kind of experiment: biochemical. In kind it is functional.
For assay [6], the target named is T5, Amine oxidase [flavin-containing] A (Homo sapiens, UniProt P21397).
T5 sequence (P21397 whole entry): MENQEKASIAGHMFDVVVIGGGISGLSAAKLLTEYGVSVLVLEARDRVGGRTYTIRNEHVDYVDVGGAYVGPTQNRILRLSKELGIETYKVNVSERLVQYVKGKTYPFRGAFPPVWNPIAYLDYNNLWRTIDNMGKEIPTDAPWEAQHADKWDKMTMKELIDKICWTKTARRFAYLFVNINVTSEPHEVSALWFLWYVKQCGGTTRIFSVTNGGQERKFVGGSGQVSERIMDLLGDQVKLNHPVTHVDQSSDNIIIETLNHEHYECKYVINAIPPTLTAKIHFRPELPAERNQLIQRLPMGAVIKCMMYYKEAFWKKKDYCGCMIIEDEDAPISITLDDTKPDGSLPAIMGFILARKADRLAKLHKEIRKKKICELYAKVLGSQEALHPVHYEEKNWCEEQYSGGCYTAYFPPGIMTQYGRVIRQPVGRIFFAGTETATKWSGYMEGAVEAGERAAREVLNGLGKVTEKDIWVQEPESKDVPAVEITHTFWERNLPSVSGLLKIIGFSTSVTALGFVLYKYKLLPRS
In kind it is functional.

Assay [7] deals with T4, 5-hydroxytryptamine receptor 2A. The format is functional, cell-based. This is another data set of the same source.
A further assay addresses Histamine H3 receptor (Homo sapiens, UniProt Q9Y5N1).

SMILES strings stand for the structures.
Also: assay procedure not described here.

Sequence of Mu-type opioid receptor (P35372 whole entry): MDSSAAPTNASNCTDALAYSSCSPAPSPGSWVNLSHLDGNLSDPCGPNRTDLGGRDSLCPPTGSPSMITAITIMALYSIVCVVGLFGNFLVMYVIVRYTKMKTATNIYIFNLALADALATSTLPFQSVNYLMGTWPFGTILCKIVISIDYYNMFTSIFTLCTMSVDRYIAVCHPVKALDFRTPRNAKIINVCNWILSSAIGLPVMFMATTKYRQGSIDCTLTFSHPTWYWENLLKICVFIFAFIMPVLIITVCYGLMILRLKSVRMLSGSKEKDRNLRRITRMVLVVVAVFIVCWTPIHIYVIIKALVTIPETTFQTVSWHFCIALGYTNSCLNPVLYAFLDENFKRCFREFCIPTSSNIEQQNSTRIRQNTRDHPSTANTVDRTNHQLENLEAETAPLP
T4 sequence (P28223 whole entry): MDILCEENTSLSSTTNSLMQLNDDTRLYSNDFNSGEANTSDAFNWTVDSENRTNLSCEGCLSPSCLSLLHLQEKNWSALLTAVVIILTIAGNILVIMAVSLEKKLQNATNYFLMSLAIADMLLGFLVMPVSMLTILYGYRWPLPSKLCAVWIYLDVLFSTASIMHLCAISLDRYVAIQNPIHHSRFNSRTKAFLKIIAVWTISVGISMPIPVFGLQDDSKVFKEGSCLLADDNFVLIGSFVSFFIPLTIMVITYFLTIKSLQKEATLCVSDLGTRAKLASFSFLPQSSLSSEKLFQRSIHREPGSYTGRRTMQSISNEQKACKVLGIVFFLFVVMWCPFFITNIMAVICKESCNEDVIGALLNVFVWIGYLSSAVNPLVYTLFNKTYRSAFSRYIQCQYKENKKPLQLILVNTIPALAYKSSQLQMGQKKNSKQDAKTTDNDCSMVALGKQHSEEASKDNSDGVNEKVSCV
Sequence of D(1A) dopamine receptor (P21728 whole entry): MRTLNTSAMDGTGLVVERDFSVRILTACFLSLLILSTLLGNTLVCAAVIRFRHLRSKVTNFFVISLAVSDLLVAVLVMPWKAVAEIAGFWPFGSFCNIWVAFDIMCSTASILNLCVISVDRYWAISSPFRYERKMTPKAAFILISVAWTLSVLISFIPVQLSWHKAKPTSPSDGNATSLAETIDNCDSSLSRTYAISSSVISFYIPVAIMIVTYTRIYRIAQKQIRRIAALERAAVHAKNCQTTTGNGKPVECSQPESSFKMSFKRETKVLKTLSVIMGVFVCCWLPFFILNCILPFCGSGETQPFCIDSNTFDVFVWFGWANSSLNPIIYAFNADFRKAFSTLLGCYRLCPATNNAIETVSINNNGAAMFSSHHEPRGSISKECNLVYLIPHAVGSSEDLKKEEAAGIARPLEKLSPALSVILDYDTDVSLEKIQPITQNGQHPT
Sequence of Histamine H2 receptor (P25021 whole entry): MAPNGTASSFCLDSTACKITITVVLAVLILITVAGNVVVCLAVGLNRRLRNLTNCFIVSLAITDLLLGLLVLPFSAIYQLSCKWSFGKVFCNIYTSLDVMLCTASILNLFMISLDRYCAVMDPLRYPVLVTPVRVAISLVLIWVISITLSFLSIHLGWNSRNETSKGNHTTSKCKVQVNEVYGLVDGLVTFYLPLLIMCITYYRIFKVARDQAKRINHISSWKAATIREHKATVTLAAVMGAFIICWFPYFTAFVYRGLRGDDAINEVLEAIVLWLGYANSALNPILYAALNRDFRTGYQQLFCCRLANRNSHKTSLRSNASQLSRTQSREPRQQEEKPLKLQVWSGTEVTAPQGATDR
Sequence of Histamine H3 receptor (Q9Y5N1 whole entry): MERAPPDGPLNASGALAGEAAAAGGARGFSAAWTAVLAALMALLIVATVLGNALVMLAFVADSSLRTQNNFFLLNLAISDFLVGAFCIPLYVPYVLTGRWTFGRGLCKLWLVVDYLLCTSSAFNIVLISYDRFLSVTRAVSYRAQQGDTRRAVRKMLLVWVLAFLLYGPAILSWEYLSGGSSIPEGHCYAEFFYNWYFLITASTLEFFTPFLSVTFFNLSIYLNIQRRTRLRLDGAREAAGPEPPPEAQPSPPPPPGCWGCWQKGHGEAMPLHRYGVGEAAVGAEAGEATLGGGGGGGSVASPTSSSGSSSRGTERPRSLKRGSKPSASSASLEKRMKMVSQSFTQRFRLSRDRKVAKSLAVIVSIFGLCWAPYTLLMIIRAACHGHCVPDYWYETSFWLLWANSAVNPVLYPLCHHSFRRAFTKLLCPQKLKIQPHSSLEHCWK
Sequence of Gamma-aminobutyric acid receptor subunit alpha-1 (P62813 whole entry): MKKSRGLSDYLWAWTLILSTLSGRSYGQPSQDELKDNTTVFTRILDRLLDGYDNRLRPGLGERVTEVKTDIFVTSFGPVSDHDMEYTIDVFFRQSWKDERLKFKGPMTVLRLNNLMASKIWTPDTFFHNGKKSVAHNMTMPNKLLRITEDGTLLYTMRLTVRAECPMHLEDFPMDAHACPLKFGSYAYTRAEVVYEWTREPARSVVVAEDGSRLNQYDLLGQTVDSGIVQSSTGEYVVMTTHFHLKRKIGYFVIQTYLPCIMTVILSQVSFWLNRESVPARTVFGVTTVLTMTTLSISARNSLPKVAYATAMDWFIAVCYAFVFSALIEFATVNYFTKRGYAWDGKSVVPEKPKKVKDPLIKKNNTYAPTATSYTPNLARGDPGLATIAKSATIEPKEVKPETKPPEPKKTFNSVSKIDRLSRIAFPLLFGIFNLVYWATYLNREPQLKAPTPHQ
Sequence of Beta-1 adrenergic receptor (P08588 whole entry): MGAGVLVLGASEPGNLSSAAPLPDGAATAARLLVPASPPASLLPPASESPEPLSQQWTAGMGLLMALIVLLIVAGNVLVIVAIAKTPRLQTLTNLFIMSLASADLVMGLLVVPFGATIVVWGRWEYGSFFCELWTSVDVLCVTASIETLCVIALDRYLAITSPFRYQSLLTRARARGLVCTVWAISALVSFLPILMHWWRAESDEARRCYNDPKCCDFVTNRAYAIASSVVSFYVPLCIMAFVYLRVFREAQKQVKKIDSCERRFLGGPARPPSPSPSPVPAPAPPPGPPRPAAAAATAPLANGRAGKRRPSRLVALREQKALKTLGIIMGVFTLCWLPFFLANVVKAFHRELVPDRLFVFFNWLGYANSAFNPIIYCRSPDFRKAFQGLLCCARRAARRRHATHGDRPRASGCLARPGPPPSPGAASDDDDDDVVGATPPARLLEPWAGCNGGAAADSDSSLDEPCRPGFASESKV

For `C[C@H](CSC(=O)c1ccccc1)C(=O)N1C[C@@H](Sc2ccccc2)C[C@H]1C(=O)O` [ZOFENOPRIL], the AC50 in [1] is above 30 µM; at Histamine H2 receptor, above 10 µM; on Estrogen receptor, above 10 µM; in assay [2], above 10 µM; in [3], above 10 µM; at D(1A) dopamine receptor it was above 10 µM. In addition, the AC50 in [4] was above 10 µM; in assay [5], above 10 µM; at Mu-type opioid receptor, above 30 µM; in [6] it was above 10 µM; in assay [7], above 10 µM.

Turning to `CC(=O)O[C@H]1C[C@@H]2CC[C@@H]3[C@H](CC[C@@]4(C)[C@H]3C[C@H]([N+]3(C)CCCCC3)[C@@H]4OC(C)=O)[C@@]2(C)C[C@@H]1N1CCCCC1` [VECURONIUM], the AC50 in [1] was above 30 µM; on Histamine H2 receptor it was above 30 µM; on Estrogen receptor, above 30 µM; in [2] it was above 30 µM; at Histamine H3 receptor it was 18 µM; in assay [3], above 30 µM. Further, the concentration at half-maximal activity (AC50) (on D(1A) dopamine receptor; in [4]; on Mu-type opioid receptor; in assay [6]) was above 30 µM throughout.

For `CO[C@@H]1[C@@H](O[C@@H]2O[C@H](C)[C@@H](O[C@H]3C[C@@](C)(O)[C@@H](OC(=O)CC(C)C)[C@H](C)O3)[C@H](N(C)C)[C@H]2O)[C@@H](CC=O)C[C@@H](C)[C@@H](O)/C=C/C=C/C[C@@H](C)OC(=O)C[C@H]1OC(C)=O` [JOSAMYCIN], the AC50 in [1] was above 30 µM; on Histamine H2 receptor, above 10 µM; at Estrogen receptor, above 10 µM; in assay [2], above 10 µM; in assay [3], above 10 µM; at D(1A) dopamine receptor, above 10 µM. The AC50 was above 10 µM in [4]; above 10 µM in assay [5]; above 30 µM on Mu-type opioid receptor; above 10 µM in assay [6]; above 10 µM in assay [7].

On to `Clc1ccc(CCCOCCCN2CCCCC2)cc1` [PITOLISANT], for which the concentration at half-maximal activity (AC50) (in assay [1]; on Histamine H2 receptor; on Estrogen receptor; in assay [2]; in assay [3]; at D(1A) dopamine receptor) was above 30 µM throughout. In addition, the AC50 (in [4]; in assay [5]; at Mu-type opioid receptor; in [6]; in [7]) was above 30 µM in each case.

On to `COC(=O)C1=C(C)NC(C)=C(C(=O)OC(C)(C)CN(C)CCC(c2ccccc2)c2ccccc2)C1c1cccc([N+](=O)[O-])c1` (configuration not stated) [LERCANIDIPINE], for which the AC50 (in assay [1]; at Histamine H2 receptor; at Estrogen receptor; in assay [2]; in assay [3]; on D(1A) dopamine receptor) was above 30 µM in each case. In addition, the AC50 (in assay [4]; in [5]; on Mu-type opioid receptor; in assay [6]; in [7]) was above 30 µM each time.

`CCOC(=O)OC(C)OC1=C(C(=O)Nc2ccccn2)N(C)S(=O)(=O)c2ccccc21` (configuration not stated) [AMPIROXICAM]: the AC50 (in assay [1]; at Histamine H2 receptor; on Estrogen receptor; in assay [2]; on Histamine H3 receptor; in [3]) was above 30 µM each time. The AC50 (at D(1A) dopamine receptor; in assay [4]; at Mu-type opioid receptor; in assay [6]) was above 30 µM throughout.

With `CO/N=C(\C(=O)N[C@@H]1C(=O)N2C(C(=O)O)=C(CSc3nnnn3C)CS[C@H]12)c1csc(N)n1` [CEFMENOXIME], the AC50 (on Histamine H2 receptor; at Estrogen receptor; in assay [2]; at Histamine H3 receptor; in assay [3]; on D(1A) dopamine receptor) was above 30 µM throughout. Also, the AC50 (in [5]; on Mu-type opioid receptor; in assay [6]; in [7]) was above 30 µM in each case.

Consider `C[C@H](N)[C@H](O)c1cccc(O)c1` [METARAMINOL], for which the AC50 in assay [1] was above 30 µM; on Histamine H2 receptor, above 30 µM; on Estrogen receptor, above 10 µM; in assay [2], above 10 µM; in assay [3], 14.3 µM; on D(1A) dopamine receptor, above 30 µM. The AC50 was above 10 µM in assay [4]; 35 µM in assay [5]; above 30 µM at Mu-type opioid receptor; above 10 µM in assay [6]; above 10 µM in [7].

Consider `COC(=O)[C@H]1[C@H]2C[C@@H]3c4[nH]c5cc(OC)ccc5c4CCN3C[C@H]2C[C@@H](OC(=O)/C=C/c2cc(OC)c(OC)c(OC)c2)[C@@H]1OC` [RESCINNAMINE], for which the AC50 in assay [1] is above 30 µM; on Histamine H2 receptor, above 30 µM; on Estrogen receptor, above 10 µM; in [2] it was above 10 µM; in [3], above 10 µM; on D(1A) dopamine receptor it was above 30 µM. The AC50 in assay [4] was above 10 µM; in assay [5], above 10 µM; at Mu-type opioid receptor, above 30 µM; in [6] it was above 10 µM; in [7], above 10 µM.

For the compound `C=CCC1(CC(C)C)C(=O)NC(=O)NC1=O` [BUTALBITAL], the AC50 in assay [1] was above 30 µM; at Histamine H2 receptor, above 30 µM; on Estrogen receptor, above 10 µM; in assay [2], above 10 µM; in [3], above 10 µM; on D(1A) dopamine receptor it was above 30 µM. Further, the AC50 is above 10 µM in [4]; above 10 µM in assay [5]; above 30 µM at Mu-type opioid receptor; above 30 µM in assay [6]; above 10 µM in assay [7].

With `CCCC(C)C1(CC)C(=O)NC(=O)NC1=O` (configuration not stated) [PENTOBARBITAL], the AC50 is above 30 µM in assay [1]; above 30 µM at Histamine H2 receptor; above 10 µM on Estrogen receptor; above 10 µM in assay [2]; above 10 µM in [3]; above 30 µM on D(1A) dopamine receptor. Further, the AC50 in assay [5] is above 10 µM; on Mu-type opioid receptor it was above 30 µM; in assay [6], above 30 µM; in assay [7] it was above 10 µM.
